Source: ChEMBL document CHEMBL4406898, “Dual mode of binding of anti cancer drug epirubicin to G-quadruplex [d-(TTAGGGT)]4 containing human telomeric DNA sequence induces thermal stabilization” (Bioorg Med Chem, 2019)
Active and inactive are the calls of the source. The calls are words filed in the database; no cut-off is given here.

Assays:
Quadruplex DNA [1] = test: Binding affinity to human telomeric 7 G-quadruplex DNA at compound:DNA ratio of 2.3 to 6.1 by spectrofluorimetric analysis; format: nucleic-acid assay
[2] = Self aggregation behaviour in phosphate buffer solution assessed as effect on absorption spectra at >10 uM by absorption spectroscopy; format: physicochemical
Quadruplex DNA [3] = test: Binding affinity to human telomeric 7 G-quadruplex DNA assessed as melting temperature Tm3 compound:DNA ratio of 0:5 by CD spectroscopy analysis; format: nucleic-acid assay
Quadruplex DNA [4] = test: Binding affinity to human telomeric 7 G-quadruplex DNA assessed as red shift in emission wavelength at 7 uM measured at 591 nanometer by fluorescence spectral analysis; format: nucleic-acid assay
Quadruplex DNA [5] = test: Effect on parallel topology of human telomeric 7 G-quadruplex DNA assessed as reduction in […] band ellipticity at 264 nm at compound:DNA ratio of 4:0 by CD spectroscopy relative to control; format: nucleic-acid assay; design: scale not given: the % may be the effect or the level left
Quadruplex DNA [6] = test: Binding affinity to human telomeric 7 G-quadruplex DNA assessed as hypochromic red shift at 7 uM in presence of 100 mM NaCl by fluorescence spectral analysis; format: nucleic-acid assay
Quadruplex DNA [7] = test: Binding affinity to human telomeric 7 G-quadruplex DNA assessed as fluorescence quenching at 7 uM by fluorescence spectral analysis; format: nucleic-acid assay
Quadruplex DNA [8] = test: Binding affinity to human telomeric 7 G-quadruplex DNA assessed as binding constant Kb2 in 150 mM of KCl by fluorescence spectral analysis; format: nucleic-acid assay
Quadruplex DNA [9] = test: Binding affinity to human telomeric 7 G-quadruplex DNA assessed as binding constant Kb1 at 559.5 nanometer by spectrofluorimetric analysis; format: nucleic-acid assay
Quadruplex DNA [10] = test: Binding affinity to human telomeric 7 G-quadruplex DNA assessed as stern-volmer quenching constant in compound:DNA ratio of 0.4 to 1.0 by spectrofluorimetric analysis; format: nucleic-acid assay
Quadruplex DNA [11] = test: Binding affinity to human telomeric 7 G-quadruplex DNA assessed as binding constant Kb2 at 591 nanometer by spectrofluorimetric analysis; format: nucleic-acid assay
Quadruplex DNA [12] = test: Effect on parallel topology of human telomeric 7 G-quadruplex DNA assessed as reduction in negative band ellipticity at compound:DNA ratio of 4:0 by CD spectroscopy relative to control; format: nucleic-acid assay; design: scale not given: the % may be the effect or the level left
Quadruplex DNA [13] = test: Binding affinity to human telomeric 7 G-quadruplex DNA assessed as binding constant Kb1 in absence of KCl by fluorescence spectral analysis; format: nucleic-acid assay
Quadruplex DNA [14] = test: Binding affinity to human telomeric 7 G-quadruplex DNA incubated for 5 mins by UV-visible spectrophotometric analysis; format: nucleic-acid assay
Quadruplex DNA [15] = test: Binding affinity to human telomeric 7 G-quadruplex DNA assessed as binding constant Kb1 at 591 nanometer by spectrofluorimetric analysis; format: nucleic-acid assay
Quadruplex DNA [16] = test: Binding affinity to human telomeric 7 G-quadruplex DNA assessed as change in melting temperature compound:DNA ratio of 2:0 by CD spectroscopy analysis; format: nucleic-acid assay
Quadruplex DNA [17] = test: Binding affinity to human telomeric 22 G-quadruplex DNA assessed as binding constant in presence of NaCl by CD spectroscopy analysis; format: nucleic-acid assay
Quadruplex DNA [18] = test: Binding affinity to human telomeric 7 G-quadruplex DNA at compound:DNA ratio of 0.4 to 1.0 by spectrofluorimetric analysis; format: nucleic-acid assay
Quadruplex DNA [19] = test: Effect on parallel topology of human telomeric 7 G-quadruplex DNA assessed as reduction in negative band ellipticity at compound:DNA ratio of 3:0 by CD spectroscopy relative to control; format: nucleic-acid assay; design: scale not given: the % may be the effect or the level left
Quadruplex DNA [20] = test: Binding affinity to human telomeric 7 G-quadruplex DNA assessed as binding constant Kb1 in water by fluorescence spectral analysis; format: nucleic-acid assay
Quadruplex DNA [21] = test: Binding affinity to human telomeric 7 G-quadruplex DNA assessed as drug-DNA complex stoichiometry ratio of 1:1 at 7 uM by absorption spectroscopy; format: nucleic-acid assay
Quadruplex DNA [22] = test: Binding affinity to human telomeric 7 G-quadruplex DNA assessed as binding constant Kb2 in 100 mM NaCl by fluorescence spectral analysis; format: nucleic-acid assay
Quadruplex DNA [23] = test: Binding affinity to human telomeric 7 G-quadruplex DNA assessed as fluorescence quenching at 7 uM in presence of water by fluorescence spectral analysis relative to control; format: nucleic-acid assay
Quadruplex DNA [24] = test: Binding affinity to human telomeric 7 G-quadruplex DNA assessed as melting temperature compound:DNA ratio of 1:0 by CD spectroscopy analysis; format: nucleic-acid assay
Quadruplex DNA [25] = test: Binding affinity to human telomeric 7 G-quadruplex DNA assessed as melting temperature Tm1 compound:DNA ratio of 2:0 by CD spectroscopy analysis (reference value: 58.8 +/- 0.4 degreeC); format: nucleic-acid assay
Quadruplex DNA [26] = test: Binding affinity to human telomeric 7 G-quadruplex DNA assessed as binding constant Kb2 in absence of KCl by fluorescence spectral analysis; format: nucleic-acid assay
Quadruplex DNA [27] = test: Binding affinity to human telomeric 7 G-quadruplex DNA assessed as melting temperature Tm1 compound:DNA ratio of 0:5 by CD spectroscopy analysis (reference value: 58.8 +/- 0.4 degreeC); format: nucleic-acid assay
Quadruplex DNA [28] = test: Binding affinity to human telomeric 7 G-quadruplex DNA assessed as binding constant Kb2 in 100 mM KCl by fluorescence spectral analysis; format: nucleic-acid assay
Quadruplex DNA [29] = test: Binding affinity to human telomeric 7 G-quadruplex DNA assessed as hypochromic red shift at 7 uM in presence of 100 to 150 mM K+ ion by fluorescence spectral analysis; format: nucleic-acid assay
Quadruplex DNA [30] = test: Binding affinity to human telomeric 7 G-quadruplex DNA assessed as quenching constant by spectrofluorimetric analysis; format: nucleic-acid assay
Quadruplex DNA [31] = test: Binding affinity to human telomeric 7 G-quadruplex DNA assessed as binding constant Kb2 in water by fluorescence spectral analysis; format: nucleic-acid assay
Quadruplex DNA [32] = test: Binding affinity to human telomeric 7 G-quadruplex DNA assessed as binding constant Kb1 in 100 mM NaCl by fluorescence spectral analysis; format: nucleic-acid assay
Quadruplex DNA [33] = test: Binding affinity to human telomeric 7 G-quadruplex DNA assessed as binding constant Kb2 in 50 mM of KCl by fluorescence spectral analysis; format: nucleic-acid assay
Quadruplex DNA [34] = test: Binding affinity to human telomeric 7 G-quadruplex DNA assessed as delta Tm1 compound:DNA ratio of 2:0 by CD spectroscopy analysis; format: nucleic-acid assay
Quadruplex DNA [35] = test: Binding affinity to human telomeric 7 G-quadruplex DNA assessed as red shift in emission wavelength at 7 uM measured at 559.5 nanometer by fluorescence spectral analysis; format: nucleic-acid assay
Tetrahymena thermophila [36] = test: Binding affinity to Tetrahymena thermophila telomeric 22 G-quadruplex DNA assessed as binding constant Kb2
Quadruplex DNA [37] = test: Binding affinity to human telomeric 7 G-quadruplex DNA assessed as melting temperature Tm2 compound:DNA ratio of 2:0 by CD spectroscopy analysis (reference value: 64.3 +/- 0.2 degreeC); format: nucleic-acid assay
Quadruplex DNA [38] = test: Binding affinity to human telomeric 22 G-quadruplex DNA assessed as binding constant in presence of KCl by CD spectroscopy analysis; format: nucleic-acid assay
Quadruplex DNA [39] = test: Binding affinity to human telomeric 7 G-quadruplex DNA assessed as melting temperature compound:DNA ratio of 2:0 to 4:0 by CD spectroscopy analysis; format: nucleic-acid assay
Quadruplex DNA [40] = test: Binding affinity to human telomeric 7 G-quadruplex DNA by CD spectroscopy; format: nucleic-acid assay
Quadruplex DNA [41] = test: Binding affinity to human telomeric 7 G-quadruplex DNA assessed as binding constant Kb1 in 150 mM of KCl by fluorescence spectral analysis; format: nucleic-acid assay
Quadruplex DNA [42] = test: Binding affinity to human telomeric 7 G-quadruplex DNA assessed as binding constant Kb1 in 50 mM of KCl by fluorescence spectral analysis; format: nucleic-acid assay
Quadruplex DNA [43] = test: Binding affinity to human telomeric 7 G-quadruplex DNA assessed as stern-volmer quenching constant in compound:DNA ratio of 1.2 to 3.8 by spectrofluorimetric analysis; format: nucleic-acid assay
Quadruplex DNA [44] = test: Binding affinity to human telomeric 7 G-quadruplex DNA assessed as delta Tm2 compound:DNA ratio of 2:0 by CD spectroscopy analysis; format: nucleic-acid assay
Quadruplex DNA [45] = test: Binding affinity to human telomeric 7 G-quadruplex DNA assessed as hypochromic red shift at 7 uM by absorption spectroscopy relative to untreated control; format: nucleic-acid assay
Quadruplex DNA [46] = test: Binding affinity to human telomeric 7 G-quadruplex DNA assessed as drug-DNA complex stoichiometry ratio of 2:1 at 7 uM by absorption spectroscopy; format: nucleic-acid assay
Quadruplex DNA [47] = test: Binding affinity to human telomeric 7 G-quadruplex DNA assessed as fluorescence quenching at 7 uM in presence of 100 to 150 mM K+ ion by fluorescence spectral analysis relative to control; format: nucleic-acid assay
Quadruplex DNA [48] = test: Binding affinity to human telomeric 7 G-quadruplex DNA assessed as fluorescence quenching at 7 uM measured at 559.5 nanometer by fluorescence spectral analysis relative to control; format: nucleic-acid assay
Tetrahymena thermophila [49] = test: Binding affinity to Tetrahymena thermophila telomeric 22 G-quadruplex DNA assessed as binding constant Kb1
Quadruplex DNA [50] = test: Binding affinity to human telomeric 7 G-quadruplex DNA assessed as hypochromic red shift by measuring difference in maximum absorption at 7 uM by absorption spectroscopy; format: nucleic-acid assay
Quadruplex DNA [51] = test: Binding affinity to human telomeric 7 G-quadruplex DNA assessed as delta Tm3 compound:DNA ratio of 2:0 by CD spectroscopy analysis; format: nucleic-acid assay
Quadruplex DNA [52] = test: Binding affinity to human telomeric 7 G-quadruplex DNA assessed as delta Tm1 compound:DNA ratio of 0:5 by CD spectroscopy analysis; format: nucleic-acid assay
Quadruplex DNA [53] = test: Binding affinity to human telomeric 7 G-quadruplex DNA assessed as fluorescence quenching at 7 uM measured at 591 nanometer by fluorescence spectral analysis relative to control; format: nucleic-acid assay
Quadruplex DNA [54] = test: Binding affinity to human telomeric 7 G-quadruplex DNA assessed as hypochromic red shift at 7 uM in presence of water by fluorescence spectral analysis; format: nucleic-acid assay
Quadruplex DNA [55] = test: Binding affinity to human telomeric 7 G-quadruplex DNA assessed as binding constant Kb1 in 100 mM KCl by fluorescence spectral analysis; format: nucleic-acid assay
Quadruplex DNA [56] = test: Binding affinity to human telomeric 7 G-quadruplex DNA assessed as binding constant Kb2 at 559.5 nanometer by spectrofluorimetric analysis; format: nucleic-acid assay
Quadruplex DNA [57] = test: Binding affinity to human telomeric 7 G-quadruplex DNA assessed as fluorescence quenching at 7 uM in presence of 100 mM NaCl by fluorescence spectral analysis relative to control; format: nucleic-acid assay

Kb (Quadruplex DNA [1]): 4.6 ×10⁵ /M
Activity [2]: Active
Tm (Quadruplex DNA [3]): 90.6 °C
deltaA (Quadruplex DNA [4]): 16 nm
Activity (Quadruplex DNA [5]): 18%
deltaA (Quadruplex DNA [6]): 1 nm
Activity (Quadruplex DNA [7]): Active
Kb (Quadruplex DNA [8]): 4.6 ×10⁶ /M
Kb (Quadruplex DNA [9]): 2 ×10⁶ /M
KSV (Quadruplex DNA [10]): 4.1 ×10⁵ /M
Kb (Quadruplex DNA [11]): 3.8 ×10⁶ /M
Activity (Quadruplex DNA [12]): 59%
Kb (Quadruplex DNA [13]): 1.8 ×10⁴ /M
Kb (Quadruplex DNA [14]): 2.3 ×10⁶ /M
Kb (Quadruplex DNA [15]): 2.7 ×10⁶ /M
ΔTm (Quadruplex DNA [16]): 15 °C
Kb (Quadruplex DNA [17]): 2.5 ×10⁴ /M
Kb (Quadruplex DNA [18]): 2 ×10⁶ /M
Activity (Quadruplex DNA [19]): 90%
Kb (Quadruplex DNA [20]): 8.4 ×10⁴ /M
Activity (Quadruplex DNA [21]): Active
Kb (Quadruplex DNA [22]): 7.3 ×10⁴ /M
Activity (Quadruplex DNA [23]): 60%
Tm (Quadruplex DNA [24]): 65 °C
Tm (Quadruplex DNA [25]): 70.4 °C
Kb (Quadruplex DNA [26]): 0.24 ×10⁴ /M
Tm (Quadruplex DNA [27]): 68.1 °C
Kb (Quadruplex DNA [28]): 4 ×10⁶ /M
deltaA (Quadruplex DNA [29]): 8 to 16 nm
Kq (Quadruplex DNA [30]): 7.5 ×10¹⁴ /M/s
Kb (Quadruplex DNA [31]): 53 ×10⁴ /M
Kb (Quadruplex DNA [32]): 3.5 ×10⁴ /M
Kb (Quadruplex DNA [33]): 3.8 ×10⁶ /M
ΔTm (Quadruplex DNA [34]): 11.6 °C
deltaA (Quadruplex DNA [35]): 8 nm
Kb (Tetrahymena thermophila [36]): 2.3 ×10⁵ /M
Tm (Quadruplex DNA [37]): 77.5 °C
Kb (Quadruplex DNA [38]): 3 to 3.6 ×10⁵ /M
Tm (Quadruplex DNA [39]): 70 °C
Kb (Quadruplex DNA [40]): 1.9 ×10⁶ /M
Kb (Quadruplex DNA [41]): 1.3 to 1.9 ×10⁶ /M
Kb (Quadruplex DNA [42]): 2.7 ×10⁶ /M
KSV (Quadruplex DNA [43]): 1.1 ×10⁶ /M
ΔTm (Quadruplex DNA [44]): 13.2 °C
Activity (Quadruplex DNA [45]): 47.6%
Activity (Quadruplex DNA [46]): Active
Activity (Quadruplex DNA [47]): 89%
Activity (Quadruplex DNA [48]): 93%
Kb (Tetrahymena thermophila [49]): 1.9 ×10⁶ /M
deltaA (Quadruplex DNA [50]): 9 nm
ΔTm (Quadruplex DNA [51]): 26.3 °C
ΔTm (Quadruplex DNA [52]): 9.3 °C
Activity (Quadruplex DNA [53]): 92%
deltaA (Quadruplex DNA [54]): 0.5 nm
Kb (Quadruplex DNA [55]): 2.3 ×10⁶ /M
Kb (Quadruplex DNA [56]): 4.6 ×10⁵ /M
Activity (Quadruplex DNA [57]): 39%
Structure (SMILES): COc1cccc2c1C(=O)c1c(O)c3c(c(O)c1C2=O)C[C@@](O)(C(=O)CO)C[C@@H]3O[C@H]1C[C@H](N)[C@@H](O)[C@H](C)O1 [EPIRUBICIN]
